Data from paper PMC5660078, “Cysteinyl-tRNA synthetase governs cysteine polysulfidation and mitochondrial bioenergetics” (Nature Communications, 2017).

Key:
EcCARS = target: T1, EcCARS (Escherichia coli, UniProt P21888); assay: HPE-IAM labeling LC-ESI-MS/MS of CysSSH formed, Michaelis-Menten fit; type: biochemical; settings: persulfide synthase reaction; 50 mM HEPES pH 7.5, 25 mM KCl, 15 mM MgCl2, 37 °C, 30 s
T1 construct: gene cysS
T1 sequence (P21888 1-461): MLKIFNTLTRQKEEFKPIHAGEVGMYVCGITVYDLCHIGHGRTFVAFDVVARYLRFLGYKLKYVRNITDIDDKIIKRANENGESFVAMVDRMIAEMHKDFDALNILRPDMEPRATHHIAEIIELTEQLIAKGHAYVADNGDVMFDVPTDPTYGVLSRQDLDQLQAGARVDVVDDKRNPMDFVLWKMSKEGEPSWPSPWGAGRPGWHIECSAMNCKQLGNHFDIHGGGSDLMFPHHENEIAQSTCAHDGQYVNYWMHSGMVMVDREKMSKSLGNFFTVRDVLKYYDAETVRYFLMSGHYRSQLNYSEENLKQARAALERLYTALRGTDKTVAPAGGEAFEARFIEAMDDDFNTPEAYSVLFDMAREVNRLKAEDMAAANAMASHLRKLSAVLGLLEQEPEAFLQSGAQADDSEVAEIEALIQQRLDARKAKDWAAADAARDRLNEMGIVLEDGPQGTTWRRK

mouse CARS1 = target: T2, mouse CARS1 (Mus musculus, UniProt Q9ER72); assay: HPE-IAM labeling LC-MS/MS of CysSSH and CysSSSH; type: biochemical; settings: 25 µM L-cysteine, 100 µM PLP, 37 °C, 2 h
T2 sequence (Q9ER72 2-831): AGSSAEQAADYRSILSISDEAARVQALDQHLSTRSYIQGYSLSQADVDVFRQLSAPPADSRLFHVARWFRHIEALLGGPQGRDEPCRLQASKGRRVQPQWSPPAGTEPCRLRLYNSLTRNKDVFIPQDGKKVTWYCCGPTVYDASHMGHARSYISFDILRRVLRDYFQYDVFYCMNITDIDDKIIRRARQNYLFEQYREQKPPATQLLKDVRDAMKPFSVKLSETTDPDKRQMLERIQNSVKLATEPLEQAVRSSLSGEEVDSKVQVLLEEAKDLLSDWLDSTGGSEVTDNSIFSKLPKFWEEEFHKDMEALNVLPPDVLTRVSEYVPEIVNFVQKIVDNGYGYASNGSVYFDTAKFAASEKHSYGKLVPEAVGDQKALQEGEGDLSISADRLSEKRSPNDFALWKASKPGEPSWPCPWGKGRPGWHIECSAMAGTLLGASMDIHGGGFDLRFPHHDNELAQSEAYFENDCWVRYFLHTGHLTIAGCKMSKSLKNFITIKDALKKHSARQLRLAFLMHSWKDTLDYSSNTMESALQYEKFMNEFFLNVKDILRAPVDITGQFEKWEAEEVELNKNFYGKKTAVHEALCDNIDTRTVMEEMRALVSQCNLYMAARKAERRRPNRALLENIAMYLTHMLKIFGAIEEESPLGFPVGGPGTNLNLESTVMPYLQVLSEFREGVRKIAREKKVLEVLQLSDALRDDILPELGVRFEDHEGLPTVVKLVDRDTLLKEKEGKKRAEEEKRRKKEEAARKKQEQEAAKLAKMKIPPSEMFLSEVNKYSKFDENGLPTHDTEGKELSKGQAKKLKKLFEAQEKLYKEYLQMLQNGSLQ

human CARS2 = target: T3, human CARS2 (Homo sapiens, UniProt Q9HA77); assay: DNPH derivatization, LC-ESI-MS/MS of bound PLP; type: binding; settings: 37 °C, 1 h, 0-100 µM PLP
T3 sequence (Q9HA77 1-564): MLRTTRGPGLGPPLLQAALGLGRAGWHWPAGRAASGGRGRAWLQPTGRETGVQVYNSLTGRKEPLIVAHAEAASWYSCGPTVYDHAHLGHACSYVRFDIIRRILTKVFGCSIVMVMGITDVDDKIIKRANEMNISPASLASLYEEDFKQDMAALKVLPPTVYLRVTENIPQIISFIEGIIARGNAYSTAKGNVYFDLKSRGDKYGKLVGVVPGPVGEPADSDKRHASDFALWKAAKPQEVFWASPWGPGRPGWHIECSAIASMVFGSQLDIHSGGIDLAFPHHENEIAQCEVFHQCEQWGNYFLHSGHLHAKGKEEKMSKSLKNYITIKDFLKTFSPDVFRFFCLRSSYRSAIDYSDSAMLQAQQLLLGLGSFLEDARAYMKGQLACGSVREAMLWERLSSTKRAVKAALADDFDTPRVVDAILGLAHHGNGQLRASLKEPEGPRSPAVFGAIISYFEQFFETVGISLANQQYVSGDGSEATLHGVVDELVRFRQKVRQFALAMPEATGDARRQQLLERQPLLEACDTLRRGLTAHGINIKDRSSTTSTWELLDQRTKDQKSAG

| Compound | Km (EcCARS) | HPE-IAM labeling LC-MS/MS of CysSSH and CysSSSH (mouse CARS1) | DNPH derivatization, LC-ESI-MS/MS of bound PLP (human CARS2) |
| --- | --- | --- | --- |
| N[C@@H](CS)C(=O)O [L-cysteine] | EcCARS is very efficient in producing CysSSH | – | – |
| Cc1ncc(COP(=O)(O)O)c(C=O)c1O [pyridoxal phosphate] | – | PLP-dependent CysSSH and CysSSSH biosynthesis by mouse CARS1 and human CARS2 | Precisely quantitative analysis for PLP bound to human CRAS2 |
